Test results: patent publication US11291705B2, “Use of caspase-3 inhibitors and caspase-3 activators in the manufacture of medicament for treating cancer and wound healing” (Technion Research & Development Foundation Limited, priority 2016, dated 2022)
Entries after “also recorded” stand apart in the source; their conditions may differ.

Columns and labels:
sebaceous gland (SG) = experiment: Sebaceous gland (SG) size and cell proliferation in mice injected subcutaneously with caspase-3 inhibitors or activators; type: in vivo; conditions: for SG size: eight week old mice; for SG size / cell proliferation / proliferative rates in the SG: subcutaneous injection for 7 days; for cell proliferation / proliferative rates in the SG / caspase-3 activation in the SG: mice; for caspase-3 activation in the SG: subcutaneous injection for seven days
Protocol: Immunofluorescence—Skins were embedded in OCT, frozen, sectioned, and fixed in 4% paraformaldehyde. Tail samples were treated with 5 mM EDTA for 4 hours at 37° C. to separate skin epithelium from dermis and fixed in formal saline for 2 hours at room temperature. Dorsal samples were treated with 5 mM EDTA for 6 hours at 37° C. to separate skin epithelium from dermis and fixed in formal saline for 1 hour at room temperature. Samples were blocked for 2 hours in Blocking buffer consisting of 10% Goat serum, 2% BSA, 0.2% Triton-X. Primary antibodies were diluted in blocking buffer and tissue/sections were incubated overnight at 4° C. Whole mounts or sections were washed at least 3 times with PBS. Secondary antibodies were incubated for 1 hour at room temperature followed by 4 washes with PBS. The following primary antibodies were used: YAP (Rabbit, 1:100, Cell Signalling, Mouse 1:100 Santa Cruz), pYAP (Rabbit, 1:100 Cell Signalling), α-E-Catenin (Rabbit, 1:100, Cell Signalling), Ki67 (Rabbit, 1:100, Abcam; Rat, 1:100, eBioscience), CD34 (Rat, 1:100, eBioscience), K15 (Mouse, 1:100, Thermo, Chicken, 1:1000, Abcam), Sox9 (Rabbit, 1:100, Millipore, Goat, 1:50, Santa Cruz). Cleaved-Caspase-3 (Rabbit, 1:100, Cell signalling), Phalloidin (1:250, Life Technologies). TUNEL was performed using ApopTag TdT (Millipore). […] Analysis was performed on Zeiss LSM 880 confocal microscope.

[1] = system: murine melanoma cell line B16F10; experiment: B16F10 melanoma tumors in mice
Text: FIG. 21E—Resected tumors stained for the proliferative marker Ki67 (red). […] Denotation: CP3, Caspase-3. ** (P<0.01), *** (P<0.001).
FIG. 22C—A histogram displaying quantification of tumor weight (mg) in treated (with Ivachtin) and non-treated (DMSO) animals. […] FIG. 22E—A histogram depicting quantification of Ki67^+ melanoma cells in vivo after treatment with Ivachtin. […] FIG. 22G—A histogram depicting quantification of TUNEL^+ melanoma cells. Denotation: CP3, Caspase-3. Scale bars: 10 μm (FIGS. 22D and 22F). * (P<0.05).

YAP [2] = experiment: YAP nuclear translocation and pYAP levels in EGFPhigh SGPZ cells; type: cell-based, mice; conditions: immunoblot
Protocol: Cell culture—The HaCaT and HEK293 cell lines were cultured in DMEM medium supplemented with 10% FBS, 1% P/S (Pen/Strep) and 1% L-glutamine. Integrin α6^+CD34^+ HFSCs and integrin α6^+CD34^−EGFP^high SGPZ cells were isolated and cultured in HFSC media on sustaining J2 feeder cells. Serum was chelated for a calcium concentration of 50 μM. […] Cells were fixed in 4% PFA for 10 minutes for immunofluorescence analysis or harvested for protein or RNA extraction.
Given that Caspase-3 inhibition hindered cell number and proliferation in vitro the present inventors next examined whether this was mediated via YAP in EGFP^high SGPZ cells using K15^+ SGPZ cells. […] Similar findings as to effect of caspase-3 inhibition on YAP activation and proliferation were also obtained in HaCaT and Hek293E3 cells (FIGS. 3J-K, FIGS. 11B-F).

human melanoma cells = experiment: GFP-infected human melanoma cells injected into recipient mice; conditions: mouse
Protocol: FIG. 15A—Melanoma cell were injected into recipient mice. […] Representative image 6 days after first treatment. FIG. 15B—quantification of tumor development indicates inhibition of tumor size in response to caspase-3 inhibition. FIG. 15C—Extracted tumors were analyzed for proliferation using the Ki67 marker and the presence of GFP^+ melanoma cells. FIG. 15D—Tumors treated with the caspase-3 activator ABT-199 result in a dramatic increase in tumor mass. […] Scale bars, 20 μm.
Examination of the effect of caspase-3 inhibition on melanoma formation in vivo—For this aim human melanoma cells were stably infected with GFP. Cells were then injected into to recipient mice and the effect of administrating caspase-3 inhibitors was monitored.

[3] = system: excision wounds (1 cm^2) on dorsal skin; experiment: Wound repair of full thickness excision wounds on dorsal skin; type: in vivo, mice
Text: For all wound repair experiments, mice were sedated with isofluorane. Mice were shaved with electric clippers and treated topically with a hair removal cream for a few minutes (Nair). Full-thickness excision wounds (1 cm^2) were generated on the dorsal skins and monitored for wound coverage. PWI, mice were individually housed. At the desired time PWI, mice were euthanized with CO2 and the wounded skins were harvested and either embedded in OCT or prepared for whole mounts as described above or for protein extraction.
Inhibition of caspase-3 impairs wound repair—Since YAP is known to play a chief role in regeneration (34), the present inventors investigated whether in vivo inhibition of Caspase-3 affects the wound repair dynamic by modulating YAP activity. […] Full thickness excision wounds (1.0 cm^2) were generated on the dorsalbacks and monitored for wound coverage. In control mice, three days post wound infliction (PWI) the wound size was reduced by 60% while in Ivachtin and z-DEVD-fink (SEQ ID NO: 71) treated mice, it was reduced by only 10% and 20%, respectively (FIG. 5A and FIG. 5B).

B16F10 melanoma cells = B16F10 melanoma cells in vitro: growth, Ki67, pYAP, α-Catenin; type: cell-based
Text: FIG. 23D—A histogram depicting quantifications of 501-A total cells number after treatment with Z-DEVD-fink (SEQ ID NO: 71). FIG. 23E—Images depicting B16F10 melanoma cells stained for Ki67 (red), active cleaved Caspase-3 (green) and nuclear counterstain DAPI (blue). […] Insets are zoom in on specific cells, Denotation: CP3, Caspase-3. Scale bars: 100 μm. ** (P<0.01), *** (P<0.001).
FIG. 24A—Images depicting B16F10 melanoma cells stained for pYAP (red). […] FIG. 24D—Images depicting B16F10 melanoma cells stained for α-Catenin (green). […] FIG. 24E—Immunoblot analysis of proteins isolated from B16F10 melanoma cells using antibodies against pYAP, α-Catenin and α-Tubulin as control.

[4] = system: integrin α6+CD34+ HFSCs, HaCaT keratinocytes and Hek293E3 cells; experiment: Expansion of other cell types treated with caspase-3 inhibitors; type: cell-based
Text: In order to examine whether Caspase-3 affects the expansion of other cell types the present inventors isolated integrin α6^+CD34^+ HFSCs from second telogen mice.

[5] = system: integrin α6+CD34−EGFPhigh SGPZ cells; experiment: Proliferation and expansion of isolated SGPZ cells treated with caspase-3 inhibitors; type: cell-based, mice
Protocol: Flow Cytometry—SGPZ cell isolation and FACS analysis were performed with K15-EGFP mice and CD34, integrin α6 and Sca1 antibodies. K15-GFP^high cells were isolated from ears and dorsal skin of 8-week old B6.Cg-Tg(Krt1-15-EGFP)2Cot/J mice.

XIAP [6] = experiment: XIAP expression in treated mice; type: in vivo; conditions: for XIAP levels: treated mice
Text: In Drosophila, Yorkie (Yki) the homolog of YAP directly regulates the transcription of Death-associated inhibitor of apoptosis 1 (Diap1), which is the functional equivalent of XIAP [Fuchs, Y. & Steller, H. Programmed cell death in animal development and disease. Cell 147, 742-758 (2011); Zhang, L., et al. The TEAD/TEF family of transcription factor Scalloped mediates Hippo signaling in organ size control. Developmental cell 14, 377-387 (2008)]. Therefore, and without being bound by any theory, the present inventors hypothesized that in the SG, XIAP might be transcriptionally regulated by YAP to balance caspase-3 activity. […] Moreover, XIAP protein levels were increased upon caspase-3 activation with PAC-1, but this effect was abolished when YAP was inhibited (FIG. 29D).

YAP [7] = experiment: Nuclear YAP and Ki67 in SGs of mice treated with PAC-1 and/or Verteporfin; type: in vivo
Text: Therefore, the present inventors investigated whether SG homeostasis is governed by YAP activity in a caspase-3 dependent manner. For this aim the present inventors employed the YAP chemical inhibitor, Verteporfin, which is known to inhibit the interaction between YAP and TEAD in the nucleus and block transcriptional activity (reference 42). The present inventor administered Verteporfin either alone or in combination with the caspase-3 activator PAC-1.

α-Catenin [8] = experiment: Immunoblot of α-Catenin in EGFPhigh SGPZ cells; type: cell-based, mice; conditions: extracts from EGFPhigh SGPZ cells
XIAP [9] = experiment: XIAP protein and mRNA levels in EGFPhigh SGPZ cells; type: cell-based, mice
Protocol: RNA extraction, reverse transcription and real-time PCR (RT-PCR)—RNA was isolated using Trizol (Sigma) and up to 2 μg of RNA were subjected to cDNA synthesis (Applied Biosystems). Real time PCR was carried out using the PerfeCTa SYBR Green FastMix (Quanta), with gene-specific primers [RpLp0 […] (SEQ ID NO:50) and […] (SEQ ID NO:51); WTIP […] (SEQ ID NO:52) and […] (SEQ ID NO:53); ErbB4 […] (SEQ ID NO:54) and […] (SEQ ID NO:55); HOXC13 […] (SEQ ID NO:56) and […] (SEQ ID NO:57); HOXA5 […] (SEQ ID NO:58) and […] (SEQ ID NO:59)]. Amplicon levels were analysed in triplicate and quantitated relative to a standard curve comprising cDNA, and values normalized to levels of the housekeeping gene (Rplp0 or Gapdh). Reactions were: 3 minutes at 95° C., then 40 cycles of 10 seconds at 95° C. and 30 seconds at 60° C. with addition of melt curve step: 10 seconds at 95° C., and increments of 0.5° C. every 5 seconds between 65° C. to 95° C.
In Drosophila, Yorkie (Yki) the homolog of YAP directly regulates the transcription of Death-associated inhibitor of apoptosis 1 (Diap1), which is the functional equivalent of XIAP [Fuchs, Y. & Steller, H. Programmed cell death in animal development and disease. Cell 147, 742-758 (2011); Zhang, L., et al. The TEAD/TEF family of transcription factor Scalloped mediates Hippo signaling in organ size control. Developmental cell 14, 377-387 (2008)]. […]

de novo regenerated SGs = experiment: De novo SG regeneration from the wound bed after full thickness excision wounds; type: in vivo, mice; conditions: for size and maturation of regenerated SGs: regenerating skin after wounding
Protocol: The wound healing process can stimulate de novo regeneration of HFs and SGs (reference 35). As such, the present inventors utilized this model to examine whether caspase-3 activation can drive SG development and maturation. Eight-week old mice were injected with DMSO, PAC-1 or PAC-1 along with Verteporfin for two days prior to wound infliction. Full thickness excision wounds (1 cm^2) were generated on the dorsalskins and skin samples were harvested 20 and 30 days post wound infliction. […] Importantly, YAP inhibition reversed these regenerative phenotypes, leading to a 10-fold reduction in the number of de novo formed SGs (FIGS. 17D and E).

α-Catenin [10] = experiment: α-Catenin levels in vivo after caspase-3 inhibition or activation; parameters: species or system mice; conditions: Western blot and immunofluorescence
Protocol: TUNEL was performed using ApopTag TdT (Millipore). […] Analysis was performed on Zeiss LSM 880 confocal microscope.
The levels of α-Catenin are known to be a critical factor in the regulation of YAP (27). In low confluent cells, diminished levels of α-Catenin serve as a mechanotransduction mechanism that instructs the nuclear translocation of YAP and drives proliferation (27, 33). […] The present inventors therefore examined the levels of α-Catenin both in vitro and in vivo, by employing both Western blot analysis and immunofluorescence.

CC1(C)CCC(CN2CCN(c3ccc(C(=O)NS(=O)(=O)c4ccc(NCC5CCOCC5)c([N+](=O)[O-])c4)c(Oc4cnc5[nH]ccc5c4)c3)CC2)=C(c2ccc(Cl)cc2)C1 [ABT-199]
SG size (sebaceous gland (SG)): significant increase
cell proliferation / proliferative rates in the SG (sebaceous gland (SG)): significant increase
caspase-3 activation in the SG (sebaceous gland (SG)): significant increase
tumor volume and weight ([1]; established B16F10 tumors): increased in volume and weight
proliferation (Ki67) in resected tumors ([1]; mouse, in vivo): higher proliferation; also recorded: high levels of proliferation
tumor size ([1]; mouse, in vivo): dramatic increase in size
activated cleaved Caspase-3 in resected tumors ([1]; staining): higher expression
levels of pYAP (YAP [2]): significantly decreased
tumor expansion by in vivo imaging (human melanoma cells): dramatically expanded
tumor mass (human melanoma cells; in vivo): two-fold increased

CC(=O)OCCN1C(=O)c2c(C)nc3ccc(S(=O)(=O)N4CCOCC4)cc3c2C1=O [Ivachtin]
levels of α-Catenin in wounded skin / invading keratinocytes ([3]; 5-7 days PWI): increased α-Catenin levels
cleavage of α-Catenin in wounded dorsalskin ([3]; 7 days PWI, Western blot): impairment in cleavage
number of nuclear YAP and Ki67 cells ([3]; 12 days PWI): decreased number
wound closure ([3]; FIGS. 19A-F): significant decrease
effect of combining caspase-3 and YAP inhibition on wound healing ([3]; Ivachtin, Verteporfin or both): no additive effect
healing at all time points ([3]; daily subcutaneous injection): less efficient
wound size reduced by ([3]; three days post wound infliction, injected from 2 days prior to wounding): 10%
size of the SG, length, width and number of proliferating cells (sebaceous gland (SG); 20 and 30 days post injection): returned to normal
SG size (sebaceous gland (SG)): decrease in SG size
cell proliferation / proliferative rates in the SG (sebaceous gland (SG)): impaired proliferative rates; also recorded: significant decrease
tumor weight ([1]; established B16F10 tumors): decrease in tumor weight
YAP positive cells in resected tumors ([1]; mouse, in vivo): significant decreases
cell death by TUNEL assay in resected tumors ([1]; mouse, in vivo): enhanced cell death
proliferation (Ki67) in resected tumors ([1]; mouse, in vivo): reduced expression; also recorded: attenuated proliferation
tumor size ([1]; mouse, in vivo): smaller tumors
phosphorylated YAP-positive cells (pYAP+) (B16F10 melanoma cells; compared to DMSO): significant increases
growth of B16F10 melanoma cells (B16F10 melanoma cells; continuous presence of inhibitor): hindered
expansion of cells ([4]; daily treatment): impaired the expansion
effect on expansion of cells ([4]; not supplemented daily): very limited effect
number of cells positive for proliferative markers Ki67 and PCNA ([5]; immunostaining, Ivachtin daily, five days): three-fold decrease
effect on cell number and colony formation ([5]; not supplemented daily): very limited effect
cellular expansion (proliferation and cell number) ([5]; supplemented daily): significant impairment

C=CCc1cccc(/C=N/NC(=O)CN2CCN(Cc3ccccc3)CC2)c1O [PAC-1]
XIAP levels (XIAP [6]): increased
numbers of nuclear YAP+/Ki67+ cells in SGs (YAP [7]; PAC-1 alone): higher numbers
number of nuclear YAP and Ki67 cells ([3]; 7 days PWI): increased number
wound healing compared with control ([3]; PAC-1 injected daily subcutaneously): healed significantly faster than control
SG size (sebaceous gland (SG)): significant increase
cell proliferation / proliferative rates in the SG (sebaceous gland (SG)): significant increase
caspase-3 activation in the SG (sebaceous gland (SG)): significant increase
levels of pYAP (YAP [2]): significantly decreased
levels of full length α-Catenin (α-Catenin [8]): decreased levels
~90 kDa and ~85 kDa α-Catenin bands (cleaved) (α-Catenin [8]): much higher levels
XIAP levels (XIAP [9]; EGFPhigh SGPZ cells): increase in XIAP levels
number of regenerated de novo SGs (de novo regenerated SGs; 20 and 30 days post wound infliction): striking increase
size and maturation of regenerated SGs (de novo regenerated SGs): significantly larger and more developed SGs
levels of α-Catenin (α-Catenin [10]): decreased levels

Verteporfin
PAC-1 induced increase of XIAP protein levels when YAP was inhibited (XIAP [6]; PAC-1 with Verteporfin): abolished
XIAP levels (XIAP [6]): decrease in XIAP levels
proliferative effect of PAC-1 (Ki67+ cells in SGs) (YAP [7]; Verteporfin in combination with PAC-1): able to overcome the positive proliferative effect of PAC-1
nuclear translocation of YAP (YAP [7]; Verteporfin treatment): did not affect
increased repair by PAC1 under YAP inhibition ([3]; PAC1 with VP): could be revered
XIAP mRNA levels, lower compared to control cells (XIAP [9]; RNA from EGFPhigh SGPZ cells): 2 fold
size and maturation of regenerated SGs (de novo regenerated SGs): did not develop into mature SGs
